Legend:
[1] = molecular target: T1, M₁ muscarinic receptors (cerebral cortex) (Rattus norvegicus, UniProt P08482); test: Muscarinic M₁ receptor binding: displacement of ³H-pirenzepine from cerebral cortex homogenate; design: species or system male CD-COOBBS rats; settings: competition against 0.5 nM ³H-pirenzepine, 45 min at 30°C, read-out: IN VITRO RECEPTOR BINDING TEST KD M₁ (cortex)
T1 construct: displacement of ³H-pirenzepine from cerebral cortex homogenate; from tissue; host or cells: rat cerebral cortex homogenate
T1 sequence (P08482 1-460): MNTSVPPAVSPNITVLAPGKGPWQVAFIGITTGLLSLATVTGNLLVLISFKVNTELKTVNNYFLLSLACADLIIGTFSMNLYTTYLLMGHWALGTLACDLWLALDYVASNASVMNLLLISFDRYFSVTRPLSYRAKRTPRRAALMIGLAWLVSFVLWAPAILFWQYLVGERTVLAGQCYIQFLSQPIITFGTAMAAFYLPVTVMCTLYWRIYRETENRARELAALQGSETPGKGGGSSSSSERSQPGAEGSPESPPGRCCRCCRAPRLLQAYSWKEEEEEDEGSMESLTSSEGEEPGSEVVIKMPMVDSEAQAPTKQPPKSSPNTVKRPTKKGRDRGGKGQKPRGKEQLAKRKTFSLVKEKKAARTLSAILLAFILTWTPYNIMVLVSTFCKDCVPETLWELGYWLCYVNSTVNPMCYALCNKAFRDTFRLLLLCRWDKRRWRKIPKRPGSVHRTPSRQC
Procedure: (§1) Antimuscarinic activity and selectivity were examined in vitro by receptor binding studies in two tissues endowed with M₁ and M₂ muscarinic receptors (cerebral cortex, heart) and in vivo by studying the acid secretion and pepsin inhibition (M₁ response) in comparison with the cardiac and mydriatic effects (M₂ response) in conscious dogs equipped with cronic gastric fistula.
Muscarinic M₁ activity was determined by studying the displacement of ³H-pirenzepine from cerebral cortex homogenate according to the procedure reported below: The cerebral cortex donors were male CD-COOBBS rats, 220-250 g body weight. The homogenization process was carried out in a Potter-Evelhjem apparatus in the presence of Na⁺/Mg⁺⁺ HEPES buffer; pH 7.4 (100 mM NaCl, 10 mM MgCl₂, 20 mM HEPES); by filtering the suspension through two layers of cheesecloth. Binding curves for the under study compounds were derived indirectly from competition experiments against 0.5 nM ³H-pirenzepine labelling the muscarinic receptors of the cerebral cortex. 1 ml of the homogenate was incubated for 45 min at 30°C in the presence of a marker ligand and dif ferent concentrations of the cold ligand, conditions under which equilibrium was reached as determined by appropriate association experiments. The incubation was termination by centrifugation (12,000 rpm for 3 min) at room temperature using an Eppendorf microcentrifuge. The resultant pellet was washed twice with 1.5 ml saline to remove the free radioactivity and the final pellet was allowed to drain. The tips of the tubes containing the pellet were cut off and 200µl of tissue subilizer (Lumasolve, Lumac) were added and left to stand overnight. Radioactivity was then counted after addition of 4 ml of liquid scintillation mixture (Dimilume/Toluene 1:10 v:v, Packard).
Assays were carried out in triplicate or quadruplicate and the non-specific binding was defined as the radioactivity bound or entrapped in the pellet when the incubation medium contained 1 µM atropine sulphate. Non-specific binding avaraged less then 30%. […]

[2] = molecular target: T2, M₂ muscarinic receptors (heart) (Rattus norvegicus, UniProt P10980); test: Muscarinic M₂ receptor binding: displacement of ³H-NMS from total heart homogenate; settings: read-out: IN VITRO RECEPTOR BINDING TEST KD M₂ (heart)
T2 construct: displacement of ³H-NMS from total heart homogenate; from tissue; rat inferred
T2 sequence (P10980 1-466): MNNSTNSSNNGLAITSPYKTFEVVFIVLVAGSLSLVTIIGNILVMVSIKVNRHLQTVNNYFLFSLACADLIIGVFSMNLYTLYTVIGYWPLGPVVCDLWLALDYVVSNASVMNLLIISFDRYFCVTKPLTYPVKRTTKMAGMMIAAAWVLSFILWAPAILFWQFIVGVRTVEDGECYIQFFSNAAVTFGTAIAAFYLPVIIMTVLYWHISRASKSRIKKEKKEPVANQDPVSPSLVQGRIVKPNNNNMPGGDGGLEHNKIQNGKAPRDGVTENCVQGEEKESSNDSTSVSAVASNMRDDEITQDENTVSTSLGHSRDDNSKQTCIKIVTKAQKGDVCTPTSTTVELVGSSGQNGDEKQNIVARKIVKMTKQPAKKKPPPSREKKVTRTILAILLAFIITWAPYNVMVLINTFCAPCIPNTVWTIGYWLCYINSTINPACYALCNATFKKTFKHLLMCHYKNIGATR

[3] = tested on: conscious dogs equipped with cronic gastric fistula; test: Conscious gastric fistula dog in vivo: 2-DG-elicited gastric secretion, heart rate and pupil diameter; design: species or system male Beagle dogs; settings: cumulative i.v. dosing; for Heart rate ED₅₀ (beats/min): dose increasing heart rate by 50 beats per min; for ED₅₀ (agonist 2-DG*) Acid output: dose inhibiting 50% acid output; for ED₅₀ (agonist 2-DG*) Acid output / ED₅₀ (agonist 2-DG*) Pepsin output: secretion elicited by 2-deoxy-D-glucose 100 mg/kg i.v.; for ED₅₀ (agonist 2-DG*) Pepsin output: dose inhibiting 50% pepsin output; for Dose doubling pupil diameter: dose which at least doubled the initial pupil diameter
Procedure: as §1
Studies were performed in 5 male Beagle dogs (15-22 Kg) with well established gastric fistula. Gastric secretion was elicited by 2-deoxy-D-glucose (2-DG) (100 mg/kg, infused intravenously in 10 min), and collected by gravity drainage at 15 min intervals. […] Each sample was measured for volume (to the nearest 0.1 ml) and acidity (titration of 1 ml sample to pH 7 with NaOH 0.1 N by means of an automatic titrator ITT Radiometer PHM 62); the pepsin content in each 15 min sample was determined on 0.1 ml of gastric juice (diluted 1:20 wich HCl 0.1 N), using the hemoglobin digestion method described by Anson (J.Gen. Phys. 22 ([…]) 79) and expressed in mU Anson.
The compounds were injected intravenously in a cumulative fashion, each dose being administered at 15 min intervals, starting after the peak response was reached. At each dose level, heart rate was measured by a cardiotachometer and pupil diameter scored under constant light. Doses inhibiting 50% (ED₅₀ and their 95% confidence limits) acid and pepsin output and maximal inhibition (I max), were obtained by fractional linear transformation of the data: D/I = aD+b, were D = dose of antagonist; I = % inhibition of acid or pepsin output; I max = 1/a; ED₅₀ = b/a. (Hirschowitz B.I. Am. J. Physiol. 216: 487-489 1969) Doses increasing heart rate by 50 beats per min (ED₅₀ and their 95% confidence limits) were evaluated by linear regression analysis of the data relating dose to effect.
Doses of compound which at least doubled the initial pupil diameter were also determined.

SMILES | Kd [1] [nM] | Kd [2] [nM] | Heart rate ED₅₀ (beats/min) [3] [µg/kg i.v.] | ED₅₀ (agonist 2-DG*) Acid output [3] [µg/kg i.v.] | ED₅₀ (agonist 2-DG*) Pepsin output [3] [µg/kg i.v.] | Dose doubling pupil diameter [3] [µg/kg i.v.]
CN1CCC(C(=O)C2c3ccccc3NC(=O)c3ccccc32)CC1 (stereo not drawn) [Compound 1, 6,11-dihydro-11-[(1-methyl-4-piperidinyl)-carbonyl]-5H-dibenz[b,e]-azepin-6-one] | 2.1 | 212 | 204 | 6.2 | 8.0 | 512
CN1CCC(C(=O)C2c3ccccc3C(=O)Nc3cccc(F)c32)CC1 (stereo not drawn) [Compound 4, 1-fluoro-6,11-dihydro-11-[(1-methyl-4-piperidinyl)-carbonyl]-5H-dibenz[b,e]-azepin-6-one] | 2.2 | 210 | 191 | 6.1 | 5.3 | 512
CN1CCC(C(=O)C2c3ccccc3C(=O)Nc3ccc(Cl)nc32)CC1 (stereo not drawn) [Compound 12, 2-chloro-6,11-dihydro-11-[(1-methyl-4-piperidinyl)-carbonyl]-5H-pyrido[2,3b]-benzazepin-6-one] | 3.15 | 279 | 78 | 7.2 | 6.3 | 320

Source: patent EP0326526A1, “Aminoketones of substituted dibenzo- and pyridobenzo-azepinones and pharmaceutical compositions” (ISTITUTO DE ANGELI S.p.A., priority 1988, dated 1989)
